Measured values from patent publication US7029696B2, “Delivery and activation through liposome incorporation of diaminocyclohexane platinum(II) complexes” (priority 1996, dated 2006).
“Also recorded” adds a separate entry of the source.

Legend:
[1] = Solubility of DACH-Pt-Cl2; type: physicochemical
[2] = Liposome entrapment (entrapment efficiency, free drug crystals by optic microscopy); type: physicochemical; conditions: generated within the liposome membranes from NDDP
Excerpt: NDDP and its two isomers, B10 and L10 were formulated in liposomes composed of combinations of various lipids including DMPC, DMPG, DOPC, DOPG, PA, PE, and PS. The liposomes were formed by reconstituting preliposomal powders containing the Pt-complex and the lipids with unbuffered 0.9% NaCl aqueous solution (saline) or phosphate-buffered saline (PBS). […] The median size of the multilamellar vesicles was 1–2 μm in all preparations. The median size of the small-size liposomes prepared by ultrasonication of multilamellar vesicles was 50–100 nm.

[3] = Intraliposomal stability of Pt-complexes by HPLC; type: physicochemical; conditions: for intraliposomal stability (in words): DMPC:DMPG liposomes, saline or PBS; for percentage of intact Pt-complex: in liposomes, 6 h after liposome preparation; for NDDP stability (%): liposomal NDDP, lipids as dry powder
Experimental: Stability of the different Pt-complexes incorporated in liposomes was determined as described previously by comparing the HPLC profiles as a function of time. In brief, aliquoted samples of liposome suspension were diluted (7×) with methanol at 0, 2, 6, and 24 h after liposome preparation, and each sample was then monitored by HPLC using chromega-8 bond column (4.6 mm×25 cm, 8 μm: ES Industries, NJ) and 10% water-methanol as eluant. The flow rate was 1 ml/min, and the complexes were detected by UV at 224 nm wavelength.

[4] = tested on: intraperitoneal L1210 mouse leukemia; test: In vivo antitumor activity of liposomal Pt-complexes
Experimental: In vivo. The in vivo antitumor activity of liposomal Pt-complexes was assessed against intraperitoneal L1210 mouse leukemia. […] The results were expressed as the median survival of treated animals divided by the median survival of control animals ×100 (% T/C).

[5] = Tracking of liposomal NDDP degradation by 195Pt NMR and HPLC; type: physicochemical
Experimental: To characterize the active intermediate(s) in the reaction cascade of L-NDDP reconstituted in saline (0.9% NaCl), tracking experiments using ^195Pt NMR spectra in combination with ^31P NMR were performed. Samples 1–3 were prepared using the lipids DMPC and DMPG purchased in chloroform solution, while samples 4–8 were prepared using lipids in dry powder. In samples 1–3, the chloroform was initially evaporated in a rotavapor. The lipid film was dissolved in t-butanol containing the NDDP in solution. An aliquot of this solution was kept at 40° C. for 6 h and then lyophilized and extracted with methanol (sample 3). The remaining was lyophilized immediately, thus resulting in a preliposomal powder, which was reconstituted with saline to produce the liposome suspension. The liposome suspension was kept at room temperature for 6 hours. The Pt compounds and lipids were then extracted with chloroform (sample 1) or the sample was lyophilized to eliminate the water and the powder dissolved in methanol (sample 2) (see FIG. 6). Samples 4, 5, and 6 were prepared by complete evaporation of solvents after keeping the samples at 40° C. for 6 h, and redissolving them in methanol. Samples 7 and 8 were prepared by lyophilization of water for 1–2 d and redissolution in methanol. All samples were prechecked by HPLC before tracking with NMR. Chemical shifts of the products are expressed in parts-per-million relative to Na2PtCl6 in ^195Pt and DMPC in ^31P NMR.

[6] = liposomal, DMPC:DMPG 7:3, lipids in chloroform, reconstituted in PBS, 25 mg/kg i.p. day 1
[7] = liposomal, DMPC:DMPG 7:3, lipids in chloroform, reconstituted in PBS, 50 mg/kg i.p. day 1
[8] = liposomal, DMPC:DMPG 7:3, lipids in chloroform, reconstituted in PBS, 100 mg/kg i.p. day 1
[9] = liposomal, DMPC:DMPG 7:3, lipids in chloroform, reconstituted in PBS, 150 mg/kg i.p. day 1
[10] = liposomal, DMPC:DMPG 7:3, lipids in chloroform, reconstituted in saline, 25 mg/kg i.p. day 1
[11] = liposomal, DMPC:DMPG 7:3, lipids in chloroform, reconstituted in saline, 50 mg/kg i.p. day 1
[12] = liposomal, DMPC:DMPG 7:3, lipids in chloroform, reconstituted in saline, 100 mg/kg i.p. day 1
[13] = liposomal, DMPC:DMPG 7:3, lipids in chloroform, reconstituted in saline, 150 mg/kg i.p. day 1
[14] = liposomal, lipids in chloroform, reconstituted in PBS
[15] = liposomal, lipids in chloroform, reconstituted in saline

For “dichloro(1,2-diaminocyclohexane) platinum(II) [DACH-Pt—Cl2]”, the solubility in dimethylformamide ([1]; dimethylformamide (DMF)) was “good solubility”, the “solubility in most organic solvents” value ([1]; most organic solvents) was “insoluble” and the solubility in water ([1]; water) was “very low solubility; also recorded: lack of solubility”. For the same compound, the “time the drug remains liposome-bound without leaking out and crystallizing” value [2] was “at least 24 h”.

In the case of CCCCCCCCCC(=O)[O][Pt][O]C(=O)CCCCCCCCC.N[C@@H]1CCCC[C@H]1N [L10], the “intraliposomal stability (in words)” value [3] is reported as “highly stable”, the “percentage of intact Pt-complex” value ([3]; reconstituted in PBS) is reported as 100% and the “percentage of intact Pt-complex” value ([3]; reconstituted in saline) is reported as 93.1%. The “% T/C” value [4, 6] was 114%, the “% T/C” value [4, 7] was 100% and the “% T/C” value [4, 8] was 100%. For the same compound, the “% T/C” value [4, 9] was 100%, the “% T/C” value [4, 10] was 100% and the “% T/C” value [4, 11] was 157%. The “% T/C” value [4, 12] was 178%, the “% T/C” value [4, 13] was 123% and the “antitumor activity (in words)” value [4, 14] was “no significant antitumor activity”. The optimal dose [4, 15] was 100 mg.

For “cis-bis-neodecanoato-trans-R,R-1,2-diaminocyclohexane platinum (II) [NDDP]”, the “stability in the absence of DMPG” value ([5]; liposomes composed of only DMPC) was “completely preserved stability”, the “degradation of NDDP” value ([5]; sample 7: dry-powder lipids, saline pH 6.5–7.0, 6 h at room temperature) was less than 5% and the “degradation of NDDP” value ([5]; sample 8: dry-powder lipids, acidic saline pH 3.0–4.0, in 10 min, yielding DACH-Pt—Cl2) was 60–95%. For the same compound, the “original NDDP remaining” value ([3]; 24 h, DMPC:DMPG 7:3, NDDP:total lipid ratio 1:15 or 1:30) was 25%, the “initial NDDP present” value ([3]; 24 hours, DMPC:DMPG 7:3, NDDP:total lipid ratio 1:5 or 1:10) was 85% and the “intraliposomal stability (in words)” value [3] was “rather unstable”. For the same compound, the “percentage of intact Pt-complex” value ([3]; reconstituted in PBS) was 82.1%, the “percentage of intact Pt-complex” value ([3]; reconstituted in saline) was 43.7% and the “NDDP stability (%)” value ([3]; saline pH 3.0, 10 min after reconstitution) was 43%. For the same compound, the “NDDP stability (%)” value ([3]; saline pH 3.0, 2 h after reconstitution) was 15%, the “NDDP stability (%)” value ([3]; saline pH 3.0, 6 h after reconstitution) was 7% and the “NDDP stability (%)” value ([3]; saline pH 5.0, 10 min after reconstitution) was 80%. For the same compound, the “NDDP stability (%)” value ([3]; saline pH 5.0, 1 h after reconstitution) was 72%, the “NDDP stability (%)” value ([3]; saline pH 5.0, 2 h after reconstitution) was 67% and the “NDDP stability (%)” value ([3]; saline pH 5.0, 6 h after reconstitution) was 38%. For the same compound, the “NDDP stability (%)” value ([3]; saline pH 7.0, 10 min after reconstitution) was 100%, the “NDDP stability (%)” value ([3]; saline pH 7.0, 2 h after reconstitution) was 95% and the “NDDP stability (%)” value ([3]; saline pH 7.0, 6 h after reconstitution) was 92%. The “NDDP transformed into the active Pt-species” value ([3]; saline pH 5.0, calculated amount of activated species (35 mg/kg of 50 mg/kg)) was “about 70%”, the “NDDP transformed into the active Pt-species” value ([3]; saline pH 7.0, calculated amount of activated species (10 mg/kg of 100 mg/kg)) was 10% and the “effect of liposome size on intraliposomal stability” value ([3]; ultrasonication of multilamellar vesicles, regardless of lipid composition) was “did not affect the intraliposomal stability”. For the same compound, the “% T/C” value [4, 6] was 114%, the “% T/C” value [4, 7] was 171% and the “% T/C” value [4, 8] was 200%. For the same compound, the “% T/C” value [4, 9] was 150%, the “% T/C” value [4, 10] was 157% and the “% T/C” value [4, 11] was 211%. For the same compound, the “% T/C” value [4, 12] was “Toxic”, the “% T/C” value [4, 13] was “Toxic” and the optimal dose ([4]; liposomal, dry lipids, reconstituted with saline of pH 3.0) was 25 mg/kg. The optimal dose ([4]; liposomal, dry lipids, reconstituted with saline of pH 5.0) was 50 mg/kg, the optimal dose ([4]; liposomal, dry lipids, reconstituted with saline of pH 7.0) was 100 mg/kg and the “% T/C” value ([4]; liposomal, dry lipids, saline pH 3.0, 12.5 mg/kg, administered 6 h after reconstitution) was 157%. The “% T/C at the optimal dose” value ([4]; liposomal, dry lipids, saline pH 3.0, 25 mg/kg) was 214%, the “% T/C” value ([4]; liposomal, dry lipids, saline pH 3.0, 25 mg/kg, administered 10 min after reconstitution) was 150% and the “% T/C” value ([4]; liposomal, dry lipids, saline pH 3.0, 25 mg/kg, administered 2 h after reconstitution) was 186%. The “% T/C” value ([4]; liposomal, dry lipids, saline pH 3.0, 25 mg/kg, administered 6 h after reconstitution) was 240%, the “% T/C” value ([4]; liposomal, dry lipids, saline pH 3.0, 50 mg/kg, administered 6 h after reconstitution) was “Toxic” and the “% T/C” value ([4]; liposomal, dry lipids, saline pH 5.0, 12.5 mg/kg, administered 6 h after reconstitution) was 186%. The “% T/C” value ([4]; liposomal, dry lipids, saline pH 5.0, 25 mg/kg, administered 6 h after reconstitution) was 200%, the “% T/C at the optimal dose” value ([4]; liposomal, dry lipids, saline pH 5.0, 50 mg/kg) was 271% and the “% T/C” value ([4]; liposomal, dry lipids, saline pH 5.0, 50 mg/kg, administered 10 min after reconstitution) was 133%. For the same compound, the “% T/C” value ([4]; liposomal, dry lipids, saline pH 5.0, 50 mg/kg, administered 2 h after reconstitution) was 216%, the “% T/C” value ([4]; liposomal, dry lipids, saline pH 5.0, 50 mg/kg, administered 6 h after reconstitution) was 270% and the “% T/C” value ([4]; liposomal, dry lipids, saline pH 5.0, 100 mg/kg, administered 6 h after reconstitution) was “Toxic”. The “% T/C” value ([4]; liposomal, dry lipids, saline pH 7.0, 25 mg/kg, administered 6 h after reconstitution) was 186%, the “% T/C” value ([4]; liposomal, dry lipids, saline pH 7.0, 50 mg/kg, administered 6 h after reconstitution) was 200% and the “% T/C at the optimal dose” value ([4]; liposomal, dry lipids, saline pH 7.0, 100 mg/kg) was 271%. For the same compound, the “% T/C” value ([4]; liposomal, dry lipids, saline pH 7.0, 100 mg/kg, administered 10 min after reconstitution) was 163%, the “% T/C” value ([4]; liposomal, dry lipids, saline pH 7.0, 100 mg/kg, administered 2 h after reconstitution) was 216% and the “% T/C” value ([4]; liposomal, dry lipids, saline pH 7.0, 100 mg/kg, administered 6 h after reconstitution) was 257%. For the same compound, the optimal dose [4, 14] was 100 mg/kg and the optimal dose [4, 15] was 50 mg/kg.

With N.N.[Cl][Pt][Cl] [Cisplatin, cis-dichlorodiamine-platinum(II), reference compound] the “% T/C” value ([4]; Table 2 comparator, 10 mg/kg i.p. day 1, printed in the Saline column) was 142% and the “% T/C” value ([4]; Table 3 comparator, 10 mg/kg, printed in the 6 h column) was 150%.

In the case of CCCCCCC(C)(C)C(=O)[O][Pt][O]C(=O)C(C)(C)CCCCCC.N[C@@H]1CCCC[C@H]1N [B10], the “intraliposomal stability (in words)” value [3] is reported as “intermediate stability”, the “percentage of intact Pt-complex” value ([3]; reconstituted in PBS) is reported as 95.9% and the “percentage of intact Pt-complex” value ([3]; reconstituted in saline) is reported as 85.0%. The “% T/C” value [4, 6] was 114%, the “% T/C” value [4, 7] was 114% and the “% T/C” value [4, 8] was 142%. For the same compound, the “% T/C” value [4, 9] was 163%, the “% T/C” value [4, 10] was 114% and the “% T/C” value [4, 11] was 128%. The “% T/C” value [4, 12] was 228%, the “% T/C” value [4, 13] was 163% and the “antitumor activity (in words)” value [4, 14] was “no significant antitumor activity”. For the same compound, the optimal dose [4, 15] was 100 mg.
